The text below walks through data of patent publication US20060241143A1, “Combination of paroxetine and 2-methoxy-5-(5-trifluoromethyl-tetrazol-1-yl-benzyl)-(2s-phenyl-piperidin-3s-yl)-amine for treatment of depression and/or anxiety” (priority 2003, published 2006).

For this assay, the system named is mongolian gerbils. Nature of the assay: gerbil social interaction model (time spent in active social interactions). It counts as in vivo. Particulars: 0.03 mg/kg i.p. (as free base), one hour after administration. On the procedure:
Paroxetine hydrochloride hemihydrate (0.3 mg/kg p.o of the paroxetine measured as the free base), 2-methoxy-5-(5-trifluoromethyl-tetrazol-1-yl-benzyl)]-(2S-phenyl-piperidin-3S-yl)-amine dihydrochloride (hereinafter compound A) (0.03 mg/kg i.p of the compound A measured as the free base) and a combination of paroxetine (0.3 mg/kg p.o. of the paroxetine measured as the free base) and compound A (0.03 mg/kg i.p. of the compound A measured as the free base) were administered independently in mongolian gerbils to assess the effect on time spent in active social interactions.
The results obtained one hour after administration, expressed as a percentage variation of the time spent in active social interactions by each animal in respect to the value obtained by treatment of control animals, are summarised in table 1.

Each structure is given as a SMILES string.

Take `COc1ccc(-n2nnnc2C(F)(F)F)cc1CN[C@H]1CCCN[C@H]1c1ccccc1.Cl.Cl` [Compound A]: the “% Variation of the time spent in active social interactions in respect to control animals” value is given as “+19.9%”.
